Source: patent publication US5459156A, “Imidazolyl-substituted phenylacetic acid prolinamides” (Bayer Aktiengesellschaft, priority 1993, dated 1995)

How the values were obtained:
[1] = system: smooth muscle cells; experiment: Inhibition of the proliferation of smooth muscle cells (3H-thymidine incorporation); format: cell-based, rats; settings: rat aorta smooth muscle cells; inhibition of thymidine incorporation produced by 10% FCS; Table B
Protocol: Investigation of the Inhibition of the Proliferation of Smooth Muscle Cells by the Compounds According to the Invention
To determine the antiprofilerative action of the compounds, smooth muscle cells are used which are obtained from aortas of rats by the media explant technique [R. Ross, J. Cell. Biol. 50, 172, 1971]. The cells are inoculated in suitable culture dishes, as a rule 96-hole plates, and cultured in 5% CO2 at 37° C. for 2-3 days in medium 199 containing 7.5% FCS and 7.5% NCS, 2 mM L-glutamine and 15 mM HEPES, pH 7.4. The cells are then synchronized by withdrawal of serum for 2-3 days and then stimulated into growth with serum or other factors. Test compounds are simultaneously added. After 16-20 hours, 1 μCi ^3 H-thymidine is added and after a further 4 hours the incorporation of this substance into the TCA-precipitatable DNA of the cells is determined. To determine the IC50 values, the active compound concentration is determined which, on sequential dilution of the active compound, causes semi-maximal inhibition of the thymidine incorporation produced by 10% FCS.

[2] = molecular target: T1, Angiotensin II Receptor (Bos taurus, UniProt P25104); experiment: Inhibition of the specific binding of radioactive angiotensin II to the angiotensin II receptor in membrane fractions of the adrenal gland cortex (bovine); settings: bovine adrenal gland cortex membranes; 3H-angiotensin II (3-5 nM); 60 min, room temperature; Table A
T1 construct: partially purified membrane fractions of bovine AGC using radioactive angiotensin II; from tissue; host or cells: bovine adrenal gland cortex, partially purified membrane fractions
T1 sequence (P25104 1-359): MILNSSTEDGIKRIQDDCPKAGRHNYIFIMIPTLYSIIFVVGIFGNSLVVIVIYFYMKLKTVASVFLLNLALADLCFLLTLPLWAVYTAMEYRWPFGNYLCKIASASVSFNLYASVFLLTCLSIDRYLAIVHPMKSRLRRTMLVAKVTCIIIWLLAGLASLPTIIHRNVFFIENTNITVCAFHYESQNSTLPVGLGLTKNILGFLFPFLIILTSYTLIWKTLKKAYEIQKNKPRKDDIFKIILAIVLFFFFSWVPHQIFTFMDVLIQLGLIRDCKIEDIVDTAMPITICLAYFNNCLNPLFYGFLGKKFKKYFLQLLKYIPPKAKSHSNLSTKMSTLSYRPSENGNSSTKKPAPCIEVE
From the text: Interaction of the Compounds According to the Invention with the Angiotensin II Receptor in Membrane Fractions of the Adrenal Gland Cortex (Bovine)
Bovine adrenal gland cortices (AGC), which have been freshly removed and carefully freed from gland medulla, are comminuted in sucrose solution (0.32M) with the aid of an Ultra-Turrax (Janke & Kunkel, Staufen i.B.) to give a coarse membrane homogenate and partially purified in two centrifugation steps to give membrane fractions. The receptor binding investigations are carried out on partially purified membrane fractions of bovine AGC using radioactive angiotensin II in an assay volume of 0.25 ml, which specifically contains the partially purified membranes (50-80 μg), ^3 H-angiotensin II (3-5 nM), test buffer solution (50 mM Tris, pH 7.2), 5 mM MgCl2 and the substances to be investigated. After an incubation time of 60 min at room temperature, the unbound radioactivity of the samples is separated by means of moistened glass fibre filters (Whatman GF/C) and the bound radioactivity is measured spectrophotometrically in a scintillation cocktail after washing the protein with ice-cold buffer solution (50 mM Tris/HCl, pH 7.4, 5% PEG 6000). […]

Row | IC50 [2] [nM] | SMILES | IC50 [1] [nM]
1 | – | CCCCc1nc(Cl)c(CO)n1Cc1ccc(C(C(=O)N2CCC[C@H]2C(=O)OC(C)(C)C)C2CCCC2)cc1 (single isomer, unassigned) [Example 14] | 450
2 | 580 | CCCCc1nc(Cl)c(C(=O)O)n1Cc1ccc(C(C(=O)N2CCC[C@H]2C(N)=O)C2CCCC2)cc1 (stereo partly drawn) [Example 7, 2-[4-(2-Butyl-4-chloro-5-carboxy-imidazol-1-yl-methyl)-phenyl]-2-cyclopentylacetic acid (L-prolinamido) amide] | –
3 | – | CCCCc1nc(Cl)c(CO)n1Cc1ccc(C(C(=O)N2CCC[C@H]2C(=O)N[C@H](CO)c2ccccc2)C2CCCC2)cc1 (stereo partly drawn) [Example 9, 2-[4-(2-Butyl-4-chloro-5-hydroxymethyl-imidazol-1-yl-methyl)phenyl]-2-cyclopentylacetic acid (L-prolinephenylglycinolamido) amide] | 860
4 | 290 | CCCCc1nc(Cl)c(C(=O)O)n1Cc1ccc(C(C(=O)N2CCC[C@H]2C(=O)OCc2ccccc2)C2CCCC2)cc1 (stereo partly shown) [Example 12] | –
